Data published in patent publication US10111435B2, “Herbicidal compositions containing N-(1,3,4-oxadiazol-2-yl)-aryl carboxylic acid amides” (BAYER CROPSCIENCE AKTIENGESELLSCHAFT, priority 2013, dated 2018).
Where two headings read alike, the source gives them in different places.

Experiments:
Assay type in all cases: in vivo
[1] = system: Echinochloa crus-galli (ECHCG); experiment: greenhouse post-emergence herbicidal efficacy against ECHCG
Method: (§1) All trials whose results are shown were conducted in a greenhouse by the methodology specified below. The effect of the inventive herbicidal compositions was examined on the following harmful plants 14 and 21 days after application:
(§2) Echinochloa crus-galli (ECHCG), Eleusine indica (ELEIN), Setaria viridis (SETVI), Amaranthus retroflexus (AMARE), Chenopodium album (CHEAL), Kochia scoparia (KCHSC), Solanum nigrum (SOLNI), Avena fatua (AVEFA), Bromus sterilis (BROST), Lolium multiflorum (LOLMU), Phalaris minor (PHAMI), Poa annua (POAAN), Galium aparine (GALAP), Matricaria inodora (MATIN) and Polygonum convolvulus (POLCO).
(§3) The harmful plant seeds were sown in pots (diameter 8 cm) with sandy loam soil and germinated under optimal conditions. The inventive herbicidal compositions or the active ingredients alone were applied post-emergence to the planted pots with a spray volume of 300 L/ha. The trial was conducted in a greenhouse under optimum growth conditions. The herbicidal effects were assessed visually by comparison of untreated and treated plants. The percentages mean: 0%=no effects, 100%=the plants die off completely). The percentages are used to calculate interactions between individual treatments and combination treatments according to S. R. Colby, Weeds 15, pages 20 to 22 (1967).
(§4) The abbreviations mean: • a.i.=active ingredient • E^C=expected value according to Colby (E^C=A+B−A×B/100) • Diff: =difference (%) of measured value from expected value (%) (measured value minus expected value)
(§5) Assessment: • measured value E is greater than E^C:->synergism (+ diff.) • measured value E equals E^C:->additive effect • measured value E is smaller than E^C:->antagonism(− diff.)

[2] = system: Poa annua (POAAN); experiment: greenhouse post-emergence herbicidal efficacy against POAAN
How it was run: (§6)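 Sandy loam pots (8 cm) were seeded and the seedlings raised under optimal conditions; treatment followed post-emergence by spraying at 300 L/ha; effects were then rated visually at 14 and 21 days; measured combination values were set against the Colby expectation, E^C=A+B−A×B/100.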

[3] = system: Polygonum convolvulus (POLCO); experiment: greenhouse post-emergence herbicidal efficacy against POLCO
How it was run: as §6

[4] = system: Matricaria inodora (MATIN); experiment: greenhouse post-emergence herbicidal efficacy against MATIN
How it was run: as §6

[5] = system: Galium aparine (GALAP); experiment: greenhouse post-emergence herbicidal efficacy against GALAP
How it was run: as §6

[6] = system: Chenopodium album (CHEAL); experiment: greenhouse post-emergence herbicidal efficacy against CHEAL
Method: as §1, §2, §3, §4, §5

[7] = system: Amaranthus retroflexus (AMARE); experiment: greenhouse post-emergence herbicidal efficacy against AMARE
Method: as §1, §2, §3, §4, §5

[8] = system: Eleusine indica (ELEIN); experiment: greenhouse post-emergence herbicidal efficacy against ELEIN; settings: for pest or weed control at […]: 2.5 g of a.i./ha; for pest or weed control at 10 g/ha: 10 g of a.i./ha; for pest or weed control at 300 g/ha / pest or weed control at 1200 g/ha: read-out: Efficacy
Method: as §1, §2, §3, §4, §5

[9] = system: Lolium multiflorum (LOLMU); experiment: greenhouse post-emergence herbicidal efficacy against LOLMU
How it was run: as §6

[10] = system: Setaria viridis (SETVI); experiment: greenhouse post-emergence herbicidal efficacy against SETVI
Method: as §1, §2, §3, §4, §5

[11] = system: Bromus sterilis (BROST); experiment: greenhouse post-emergence herbicidal efficacy against BROST
How it was run: as §6

[12] = system: Phalaris minor (PHAMI); experiment: greenhouse post-emergence herbicidal efficacy against PHAMI
How it was run: as §6

[13] = system: DIGSA; experiment: greenhouse post-emergence herbicidal efficacy against DIGSA
Method: as §1, §3, §4, §5

[14] = system: Solanum nigrum (SOLNI); experiment: greenhouse post-emergence herbicidal efficacy against SOLNI
Method: as §1, §2, §3, §4, §5

[15] = system: Avena fatua (AVEFA); experiment: greenhouse post-emergence herbicidal efficacy against AVEFA
How it was run: as §6

[16] = 14 days after application, 0.4 g of a.i./ha
[17] = 21 days after application, 0.4 g of a.i./ha
[18] = 14 days after application, 2.5 g of a.i./ha
[19] = 21 days after application, g of a.i./ha: A1-14 2.5, pyrasulfotole 25
[20] = 21 days after application, g of a.i./ha: A1-14 2.5, pyrasulfotole 100
[21] = 14 days after application, 10 g of a.i./ha
[22] = 21 days after application, g of a.i./ha: A1-14 10, pyrasulfotole 25
[23] = 21 days after application, g of a.i./ha: A1-14 10, pyrasulfotole 100
[24] = 14 days after application, 0.1 g of a.i./ha
[25] = 14 days after application, 0.5 g of a.i./ha
[26] = 14 days after application, 2 g of a.i./ha
[27] = 21 days after application, 0.5 g of a.i./ha
[28] = 21 days after application, 2 g of a.i./ha
[29] = 21 days after application, g of a.i./ha: A1-36 10, flurtamone 80
[30] = 21 days after application, g of a.i./ha: A1-36 10, flurtamone 320
[31] = 21 days after application, g of a.i./ha: A1-36 2.5, flurtamone 80
[32] = 21 days after application, g of a.i./ha: A1-36 2.5, flurtamone 320
[33] = 14 days after application, 400 g of a.i./ha
[34] = 14 days after application, 100 g of a.i./ha
[35] = 21 days after application, 400 g of a.i./ha
[36] = 21 days after application, 100 g of a.i./ha
[37] = 21 days after application, 2.5 g of a.i./ha
[38] = 21 days after application, 10 g of a.i./ha
[39] = Eleusine indica, post-emergence, 336 h, 14 days after application
[40] = Eleusine indica, post-emergence, 504 h, 21 days after application
[41] = 14 days after application, 300 g of a.i./ha
[42] = 14 days after application, 1200 g of a.i./ha
[43] = 21 days after application, 300 g of a.i./ha
[44] = 21 days after application, 1200 g of a.i./ha
[45] = Eleusine indica, post-emergence, 336 h
[46] = Eleusine indica, post-emergence, 504 h

SMILES: Cc1nnc(NC(=O)c2ccc(C(F)(F)F)c([S+](C)[O-])c2Cl)o1 (stereo not shown) [A1-14]
- Efficacy [1, 16]: 0%
- Efficacy [1, 17]: 0%
- Efficacy [2, 18]: 10%
- Efficacy [2, 19]: 0%
- Efficacy [2, 20]: 0%
- Efficacy [3, 18]: 20%
- Efficacy [3, 21]: 20%
- Efficacy [3, 19]: 0%
- Efficacy [3, 20]: 0%
- Efficacy [3, 22]: 3%
- Efficacy [3, 23]: 3%
- Efficacy [4, 18]: 50%
- Efficacy [4, 21]: 60%
- Efficacy [4, 20]: 30%
- Efficacy [5, 19]: 0%
- Efficacy [5, 22]: 15%
- Efficacy [6, 24]: 0%
- Efficacy ([6]; 21 days after application, 0.1 g of a.i./ha): 0%
- Efficacy [7, 24]: 0%
- Efficacy [8, 24]: 0%
- Efficacy [8, 16]: 20%
- Efficacy [9, 18]: 0%
- Efficacy [9, 21]: 0%
- Efficacy [10, 24]: 0%
- Efficacy [10, 17]: 0%
- Efficacy [11, 18]: 0%
- Efficacy [11, 21]: 3%
- Efficacy [11, 23]: 0%
- Efficacy [12, 18]: 0%
- Efficacy [12, 21]: 25%
- Efficacy [12, 19]: 0%
- Efficacy [12, 20]: 0%
- Efficacy [13, 16]: 0%
- Efficacy [13, 17]: 0%

SMILES: Cc1nnc(NC(=O)c2ccc(C(F)(F)F)c(S(C)(=O)=O)c2Cl)o1 [A1-36]
- Efficacy [1, 25]: 10%
- Efficacy [1, 26]: 40%
- Efficacy [1, 27]: 0%
- Efficacy [1, 28]: 20%
- Efficacy [14, 28]: 50%
- Efficacy [3, 18]: 0%
- Efficacy [3, 29]: 3%
- Efficacy [3, 30]: 3%
- Efficacy [4, 18]: 15%
- Efficacy [4, 21]: 40%
- Efficacy [4, 31]: 0%
- Efficacy [4, 32]: 0%
- Efficacy [4, 29]: 15%
- Efficacy [4, 30]: 15%
- Efficacy [5, 18]: 5%
- Efficacy [5, 21]: 25%
- Efficacy [5, 31]: 0%
- Efficacy [5, 29]: 25%
- Efficacy [5, 30]: 25%
- Efficacy [7, 27]: 20%
- Efficacy [7, 28]: 70%
- Efficacy [15, 18]: 0%
- Efficacy [15, 21]: 15%
- Efficacy [15, 31]: 10%
- Efficacy [15, 32]: 10%
- Efficacy [15, 29]: 15%
- Efficacy [15, 30]: 15%
- Efficacy [8, 26]: 50%
- Efficacy [8, 28]: 30%
- Efficacy [9, 21]: 3%
- Efficacy [9, 29]: 0%
- Efficacy [10, 28]: 65%
- Efficacy [11, 18]: 0%
- Efficacy [11, 31]: 5%
- Efficacy [11, 32]: 5%
- Efficacy [12, 18]: 0%
- Efficacy [12, 21]: 30%
- Efficacy [12, 29]: 20%
- Efficacy [13, 25]: 10%
- Efficacy [13, 27]: 10%

SMILES: N#Cc1cc(Br)c(O)c(Br)c1 [bromoxynil]
- Efficacy [1, 33]: 0%
- Efficacy [1, 34]: 0%
- Efficacy [1, 35]: 0%
- Efficacy [6, 33]: 85%
- Efficacy [6, 35]: 75%
- Efficacy [7, 34]: 40%
- pest or weed control at 100 g/ha ([8]; Eleusine indica, post-emergence, 336 h, 14 days after application, 100 g of a.i./ha): 0%
- pest or weed control at 400 g/ha ([8]; Eleusine indica, post-emergence, 336 h, 14 days after application, 400 g of a.i./ha): 0%
- Efficacy [10, 33]: 0%
- Efficacy [10, 34]: 0%
- Efficacy [10, 36]: 0%
- Efficacy [10, 35]: 0%
- Efficacy [13, 33]: 0%
- Efficacy [13, 34]: 0%
- Efficacy [13, 36]: 0%
- Efficacy [13, 35]: 0%

SMILES: CS(=O)(=O)c1cc(C(F)(F)F)ccc1C(=O)c1cnoc1C1CC1 [isoxaflutole]
- Efficacy [1, 18]: 10%
- Efficacy [1, 21]: 60%
- Efficacy [1, 37]: 10%
- Efficacy [1, 38]: 60%
- Efficacy [14, 38]: 65%
- Efficacy [7, 37]: 40%
- pest or weed control at […] [8, 39]: 20%
- pest or weed control at 10 g/ha [8, 39]: 60%
- pest or weed control at […] [8, 40]: 0%
- pest or weed control at 10 g/ha [8, 40]: 20%
- Efficacy [10, 37]: 0%
- Efficacy [10, 38]: 0%
- Efficacy [13, 21]: 10%
- Efficacy [13, 38]: 0%

SMILES: O=c1[nH]c2c(c(=O)n1C1CCCCC1)CCC2 [lenacil]
- Efficacy [1, 41]: 0%
- Efficacy [1, 42]: 0%
- Efficacy [1, 43]: 0%
- Efficacy [1, 44]: 0%
- Efficacy [14, 41]: 0%
- Efficacy [14, 42]: 0%
- Efficacy [14, 43]: 0%
- Efficacy [14, 44]: 0%
- Efficacy [7, 42]: 0%
- Efficacy [7, 43]: 0%
- Efficacy [7, 44]: 0%
- pest or weed control at 300 g/ha [8, 45]: 0%
- pest or weed control at 1200 g/ha [8, 45]: 0%
- pest or weed control at 300 g/ha [8, 46]: 0%
- pest or weed control at 1200 g/ha [8, 46]: 0%
- Efficacy [10, 41]: 0%
- Efficacy [10, 42]: 0%
- Efficacy [10, 43]: 0%
- Efficacy [10, 44]: 0%
- Efficacy [13, 41]: 0%
- Efficacy [13, 42]: 0%
- Efficacy [13, 43]: 0%
- Efficacy [13, 44]: 0%
